Data from the METLIN SMRT retention time set (Domingo-Almenara et al. 2019).

Experiment: gradient 5% acetonitrile 3 min, to 50% in 2 min, to 85% in 15 min, held 3 min, 100 µL/min
Details: column: Zorbax Extend-C18 2.1 x 50 mm; eluents: water / acetonitrile, 0.1% formic acid
In short: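 The system's dead and dwell volumes were 40 μL and 900 μL, with a Zorbax Extend-C18 column (2.1 × 50 mm, 1.8 μm) run at 100 μL/min in water and acetonitrile containing 0.1% formic acid each. Pure standards were analyzed in mixtures of ~100 molecules by HPLC–quadrupole time-of-flight mass spectrometry in positive and negative ionization mode. Retention time was assigned from computationally picked, manually inspected adduct peaks.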

| SMILES | RP-LC retention time |
| --- | --- |
| COc1cc(N2CCN(C(=O)c3cnccn3)CC2)nc(C)n1 | 515 s |
| Cc1ccc(C(=O)NCc2nn(C)c3ccccc23)cc1 | 810 s |
| Cc1cccc(CNC(=O)c2cc3n(n2)CC(C)(C(=O)NCc2ccccc2)N(C)C3=O)c1 (centres undefined) | 732 s |
| CCOc1ccccc1NC(=O)N1CCc2nc[nH]c2C1 | 577 s |
| NC(=O)C(=O)c1cn(Cc2ccc(F)cc2)c2ccccc12 | 811 s |
| Cn1nc(CNC(=O)C2CC(=O)N(C3CCCCC3)C2)c2c1CCN(S(C)(=O)=O)C2 (centres undefined) | 645 s |
| CCCNC(=O)C(=O)NCC(c1ccc2c(c1)OCO2)N1CCOCC1 (centres undefined) | 595 s |
| CCCN(CC1CCOC1)C(=O)Nc1cccc(F)c1C (centres undefined) | 758 s |
| O=C(Nc1ccc2c(c1)OCO2)N(Cc1ccccn1)Cc1ccco1 | 628 s |
| Cc1nc(OCC(=O)Nc2ccc(Br)cc2)c2ccccc2n1 | 794 s |
| Cn1cc(CC(=O)NCc2ccc(Br)cc2)c2cccnc21 | 736 s |
| CSc1ccc(Cl)c(C(=O)NCCc2cn(C)c3ncccc23)c1 | 724 s |
| O=C(Nc1cnc(-c2ccc(Cl)cc2)nc1)c1cncc(Br)c1 | 1070 s |
| CN1C(=O)C2(CCN(C(=O)c3ccccc3F)C2)c2ccccc21 (centres undefined) | 750 s |
| CCOc1cc(-c2nc(C3CC(=O)N(c4ccc(OC)c(OC)c4)C3)no2)cc(OCC)c1OCC (centres undefined) | 1060 s |
| COc1cccc(-c2nc(-c3cn(Cc4ccc(F)cc4)nn3)no2)c1 | 983 s |
| O=C(O)c1nnn(-c2cccc(F)c2)c1-c1cccnc1 | 614 s |
| O=C(NCc1cccnc1)c1cccn1Cc1noc(-c2ccc(Cl)cc2)n1 | 701 s |
| O=C(CSc1ccc(N2CCN(c3ccccc3)CC2)nn1)NCc1ccco1 | 735 s |

| SMILES | RP-LC retention time |
| --- | --- |
| CC(C)N(Cc1ccccc1)C(=O)c1cc2c(=O)n3ccccc3nc2n1C | 884 s |
| O=C(NC1CCCC1)N1CCN(c2nc3cccnc3n(Cc3ccccc3)c2=O)CC1 | 1030 s |
| COc1ccc(-c2csc(NC(=O)Cc3csc(-c4ccccc4)n3)n2)cc1 | 1090 s |
| COC(=O)c1cn(NC(=O)c2cc(-c3ccco3)nc3ccccc23)c(=O)c2ccccc12 | 858 s |
| COc1cc2c(cc1OC)C(C(=O)NC1CCCCC1)C(c1cccnc1)N(C)C2=O (centres undefined) | 994 s |
| O=C(N1CCC2(CC1)CC(CCOc1ccncc1)CCO2)C1(c2ccccc2)CC1 (centres undefined) | 664 s |
| Cc1ccc(Sc2c(-c3ccccc3)nc3ncccn23)cc1 | 1040 s |
| CCCN(CC1CCOC1)C(=O)c1ccc(F)c(F)c1 (centres undefined) | 787 s |
| Cc1ccc(NC(=O)NCC(c2cccnc2)c2cn(C)c3ccccc23)cc1 (centres undefined) | 816 s |
| Fc1ccccc1CNc1nnc(-c2nc(C3CC3)no2)c2ccccc12 | 952 s |
| O=S(=O)(c1cccn2cnnc12)N(Cc1cccc(F)c1)c1ccc(F)cc1 | 822 s |
| O=C(NCc1ccc(F)cc1)N1CCN(CCn2c(C(F)(F)F)nc3cccnc32)CC1 | 639 s |
| CCCCS(=O)(=O)N1CCC2(CC1)C(=O)N(C)C(=O)N2C | 671 s |
| Cc1cnc(C2CCOCC2)n1C1CCN(C(=O)NC2CCCCC2)CC1 | 611 s |
| CC(=O)Nc1ccc(C2(C(=O)NCc3ccccc3F)CCC2)cc1 | 732 s |
| COc1ccc2c(c1)C1(CCN(S(=O)(=O)c3cccc(Cl)c3)C1)C(=O)N2C (centres undefined) | 978 s |
| CCn1nccc1C(=O)N1C[C@@H]2C[C@H](NC(=O)c3ccccc3)[C@H]1C2 | 673 s |
| CCC(=O)N1CCOc2ccc(N(C)C)cc2C1 | 570 s |

Now from value to compound:

| RP-LC retention time | SMILES |
| --- | --- |
| 1230 s | CCOC(=O)c1cc(C2CC2)nc2c1c(=O)n(Cc1cccc(C)c1)c(=O)n2C |
| 856 s | CCCC(C)C(=O)NC1CCN(C2=NS(=O)(=O)C(c3ccc(F)cc3)=C2C)CC1 (centres undefined) |
| 650 s | COCCn1ncc(N2CCC(C(=O)N(C)CC(=O)Nc3ccc(F)cc3)C2)cc1=O (centres undefined) |
| 821 s | O=C(Nc1nc2ccccc2s1)C1CCN(C(=O)c2cccc(F)c2)CC1 |
| 648 s | CCNC(=O)c1n[nH]c2c1CN(C(=O)c1cc(F)ccc1F)CC2 |
| 672 s | COc1ccc(CNC(=O)C2CCN(Cc3cn(C)c4ccc(OC)cc34)CC2)c(OC)c1 |
| 1000 s | O=S(=O)(c1ccc(OC(F)(F)F)cc1)N1CCC(c2nnc(C(F)(F)F)o2)CC1 |
| 696 s | CCc1nncn1C1CCN(S(=O)(=O)c2cc(F)ccc2OC)CC1 |
| 862 s | O=C(Cn1nc2c(cc1=O)CCCC2)Nc1nc(-c2ccc3c(c2)OCCCO3)cs1 |
| 779 s | CCCCNC(=O)c1cn(-c2cc(-c3nc(C)no3)ccn2)cn1 |
| 757 s | O=C(NCCC1CCN(C(=O)Nc2ccc(F)cc2F)CC1)c1ccsc1 |
| 1120 s | CCCS(=O)(=O)N1CCC2(CC1)C(=O)N(c1cccc(F)c1)C2c1ccccc1 (centres undefined) |
| 672 s | Cn1cc(-c2ccc(F)cc2)cc1C(=O)NCCN1CCCCC1 |
| 576 s | Cc1cc(N2CCN(C)CC2)nc2ccc(NC(=O)c3cccc([N+](=O)[O-])c3)cc12 |
| 955 s | CC(C)CCNC(=O)C1CCCN(c2nc3ccsc3c(=O)n2Cc2ccccc2)C1 (centres undefined) |
| 770 s | Cc1ccc(NC(=O)C2CC(=O)N(c3n[nH]c4cccc(F)c34)C2)c(C)c1 (centres undefined) |
| 578 s | Cn1c(N2CCC(C(=O)NC3CCN(Cc4ccccc4)CC3)CC2)cc(=O)n(C)c1=O |
| 842 s | CC(C)n1cnc(S(=O)(=O)N2CCCC(C(=O)Nc3cccc(Cl)c3)C2)c1 (centres undefined) |
| 785 s | C=Cc1ccc(CN2CCCN(c3ncccc3-c3nc(C(C)C)no3)CC2)cc1 |
| 837 s | COc1nn(C)cc1C(=O)Nc1nc(-c2nc3ccccc3s2)cs1 |
| 762 s | CCN1C(=O)c2cccnc2Sc2cc(CNC(=O)c3cccc(OC)c3)ccc21 |
| 1230 s | COc1ccccc1NC(=O)CSc1nc2ccccc2c(=O)n1C1CCCCC1 |
| 836 s | O=C(NC1CCCC1)C1CCN(S(=O)(=O)c2cc(C(=O)N3CCCCCC3)cs2)CC1 |
| 901 s | CCN1C(=O)CCc2c(C)nc(-c3ccc(OC)cc3)nc21 |
| 840 s | CC1=C(c2cccc(Cl)c2)S(=O)(=O)N=C1N1CCC(NC(=O)C2CCC2)CC1 |
| 819 s | CCc1nc2cc(-c3noc(CNC(=O)Cc4ccccc4)n3)ccc2o1 |

| RP-LC retention time | SMILES |
| --- | --- |
| 635 s | Cc1ccc(N2C(=O)CCS2(=O)=O)cc1S(=O)(=O)N1CCN(c2ccccn2)CC1 |
| 771 s | CCOC(=O)c1ccc(NC(=O)Cn2c(=O)n(CC)c(=O)c3c2cc(C)n3C)cc1 |
| 856 s | O=C(NCc1cc(-c2cc3ccccc3o2)on1)c1ccc2c(c1)OCO2 |
| 797 s | CCOC(=O)C1CCN(S(=O)(=O)c2cc(-c3c(CC)noc3NC(C)=O)ccc2OC)CC1 |
| 1170 s | CCOc1ccccc1NC(=O)N1CCc2nc(-c3ccc(Cl)cc3)ncc2C1 |
| 674 s | O=C(CSc1nnc(NC(=O)C2CC2)s1)NCc1ccc(F)cc1 |
| 979 s | Cc1cc(NC(=O)c2sc(-c3cn(C)c4ncccc34)nc2C)ccc1F |
| 764 s | COCCNS(=O)(=O)c1ccc(-c2c(C)noc2C)cc1 |
| 754 s | COc1cccc(N2CCN(c3ccnc(SCC(=O)Nc4ccc(OC)c(Cl)c4)n3)CC2)c1 |
| 654 s | Cc1csc(-c2cc(S(=O)(=O)N3CCN(C)CC3)cn2CC(=O)N2CCCCC2)n1 |
| 952 s | CC1CCN(S(=O)(=O)c2nn(C)cc2C(=O)NCCc2cccs2)CC1 |
| 648 s | O=C(NC1CCN(c2cc(-c3ccccc3)[nH]n2)C1)c1ccc2c(c1)OCO2 (centres undefined) |
| 959 s | CCc1ccc(CNC(=O)c2c(C)sc3ccn(CC)c(=O)c23)cc1 |
| 1050 s | CCCNC(=O)C1CCCN(S(=O)(=O)c2cc(-c3noc(C4CCCC4)n3)cs2)C1 (centres undefined) |
| 591 s | COc1ccc(N2CCN(C(CNC(=O)C(=O)Nc3ccon3)c3ccco3)CC2)cc1 (centres undefined) |
| 1070 s | CC1Oc2ccc(-c3csc(NC(=O)COc4ccc(Cl)cc4)n3)cc2N(C)C1=O (centres undefined) |
| 872 s | CCOC(=O)c1ccc(NC(=O)Cn2c(=O)nc(N3CCC(C)CC3)c3ccccc32)cc1 |
| 794 s | Cc1ccc(NC(=O)C2CCCN2S(=O)(=O)c2cc3c(cc2C)NC(=O)C(C)O3)cc1 (centres undefined) |
| 1060 s | CCCN1C(=O)COc2ccc(-c3csc(NC(=O)c4ccc(F)cc4)n3)cc21 |
| 1080 s | CCCc1nc(-c2ccccc2)oc1CC(=O)Nc1cccc(Cl)c1C |
| 1010 s | CCc1cc(C(=O)NC2CC2)nc2cc(-c3ccsc3)nn12 |
| 968 s | O=C(Nc1ccc2c(c1)OCCO2)C1CCCN(S(=O)(=O)Cc2ccc(Cl)cc2)C1 (centres undefined) |
| 994 s | CCc1nc(-c2csc(S(=O)(=O)N3CCC(C(=O)Nc4ccc(C)c(Cl)c4)CC3)c2)no1 |
| 687 s | CCOc1ccc(S(=O)(=O)Nc2cc(-c3cn4ccccc4n3)ccc2C)cc1 |
| 661 s | COCC1CN(C)CC12CCN(S(=O)(=O)c1cc(F)ccc1C)CC2 (centres undefined) |
| 596 s | Cn1cc(C(=O)N2CCOCC2)cc(NC(=O)c2cccs2)c1=O |
